Test results taken from ChEMBL document CHEMBL1157874, “Synthesis, spectroscopic and biological studies on the new symmetric Schiff base derived from 2,6-diformyl-4-methylphenol with N-aminopyrimidine” (2010).
Converted amounts (≈) assume the structure as drawn.

Experiments:
Type in all cases: functional
Candida parapsilosis = assay: Antifungal activity against Candida parapsilosis ATCC 22019 after 18 hrs by broth microdilution assay; conditions: Lodderomyces parapsilosis, ATCC 22019, 18 h
Staphylococcus aureus [1] = assay: Antibacterial activity against Staphylococcus aureus ATCC 6538 after 18 hrs by broth microdilution assay; conditions: ATCC 6538, 18 h
Candida albicans = assay: Antifungal activity against Candida albicans ATCC 14053 after 18 hrs by broth microdilution assay; conditions: ATCC 14053, 18 h
Bacillus cereus = assay: Antibacterial activity against Bacillus cereus ATCC 7064 after 18 hrs by broth microdilution assay; conditions: ATCC 7064, 18 h
Escherichia coli = assay: Antibacterial activity against Escherichia coli ATCC 4230 after 18 hrs by broth microdilution assay; conditions: ATCC 4230, 18 h
Pichia kudriavzevii = assay: Antifungal activity against Candida krusei ATCC 6258 after 18 hrs by broth microdilution assay; conditions: ATCC 6258, 18 h
Micrococcus luteus = assay: Antibacterial activity against Micrococcus luteus ATCC 9345 after 18 hrs by broth microdilution assay; conditions: ATCC 9345, 18 h
Staphylococcus aureus [2] = assay: Antibacterial activity against Staphylococcus aureus ATCC 25923 after 18 hrs by broth microdilution assay; conditions: ATCC 25923, 18 h

Compound	MIC (Candida parapsilosis) [µg/mL]	MIC (Staphylococcus aureus [1]) [µg/mL]	MIC (Candida albicans) [µg/mL]	MIC (Bacillus cereus) [µg/mL]	MIC (Escherichia coli) [µg/mL]	MIC (Pichia kudriavzevii) [µg/mL]	MIC (Micrococcus luteus) [µg/mL]	MIC (Staphylococcus aureus [2]) [µg/mL]
Cc1cc(/C=N/n2cc(C(=O)c3ccccc3)c(-c3ccccc3)nc2=O)c(O)c(/C=N/n2cc(C(=O)c3ccccc3)c(-c3ccccc3)nc2=O)c1	40 (≈ 56.3 µM)	20 (≈ 28.1 µM)	40 (≈ 56.3 µM)	80 (≈ 113 µM)	40 (≈ 56.3 µM)	40 (≈ 56.3 µM)	20 (≈ 28.1 µM)	20 (≈ 28.1 µM)
CC1(C)S[C@@H]2[C@H](NC(=O)[C@H](N)c3ccccc3)C(=O)N2[C@H]1C(=O)O [AMPICILLIN]	–	–	–	5 (≈ 14.3 µM)	–	–	10 (≈ 28.6 µM)	–
OC(Cn1cncn1)(Cn1cncn1)c1ccc(F)cc1F [FLUCONAZOLE]	–	–	–	–	–	10 (≈ 32.7 µM)	–	–
